Measurements taken from ChEMBL document CHEMBL4359830, “Discovery and structure-activity relationship of novel diphenylthiazole derivatives as BTK inhibitor with potent activity against B cell lymphoma cell lines” (Eur J Med Chem, 2019).

How the values were obtained:
[1] = test system: Raji; assay: Induction of apoptosis in human Raji cells assessed as necrotic cells at 3 uM measured after 15 mins by Annexin-V-APC staining-based flow cytometric analysis (reference value: 1.87 %); assay type: functional
[2] = test system: Ramos; assay: Induction of apoptosis in human Ramos cells assessed as early apoptotic cells at 0.1 uM measured after 15 mins by Annexin-V-APC staining-based flow cytometric analysis (reference value: 0.14 %); assay type: functional
[3] = test system: Ramos; assay: Cell cycle arrest in human Ramos cells assessed as accumulation at S phase at 1 uM measured after 48 hrs by propidium iodide/RNase staining based flow cytometric analysis (reference value: 56.35 %); assay type: functional
[4] = test system: Raji; assay: Induction of apoptosis in human Raji cells assessed as viable cells at 3 uM measured after 15 mins by Annexin-V-APC staining-based flow cytometric analysis (reference value: 97.5 %); assay type: functional; details: 0.25 h, read-out: Activity
[5] = test system: Ramos; assay: Cell cycle arrest in human Ramos cells assessed as accumulation at G0/G1 phase at 0.1 uM measured after 48 hrs by propidium iodide/RNase staining based flow cytometric analysis (reference value: 37.66 %); assay type: functional
[6] = test system: Raji; assay: Induction of apoptosis in human Raji cells assessed as necrotic cells at 5 uM measured after 15 mins by Annexin-V-APC staining-based flow cytometric analysis (reference value: 1.87 %); assay type: functional
[7] = test system: Raji; assay: Induction of apoptosis in human Raji cells assessed as early apoptotic cells at 5 uM measured after 15 mins by Annexin-V-APC staining-based flow cytometric analysis (reference value: 0.021 %); assay type: functional
[8] = test system: Ramos; assay: Induction of apoptosis in human Ramos cells assessed as necrotic cells at 5 uM measured after 15 mins by Annexin-V-APC staining-based flow cytometric analysis (reference value: 1.50 %); assay type: functional
[9] = test system: Ramos; assay: Cell cycle arrest in human Ramos cells assessed as accumulation at G2/M phase at 0.1 uM measured after 48 hrs by propidium iodide/RNase staining based flow cytometric analysis (reference value: 5.98 %); assay type: functional
[10] = test system: Raji; assay: Induction of apoptosis in human Raji cells assessed as viable cells at 5 uM measured after 15 mins by Annexin-V-APC staining-based flow cytometric analysis (reference value: 97.5 %); assay type: functional; details: Homo sapiens, Raji, 0.25 h; read-out: Activity
[11] = test system: Ramos; assay: Cell cycle arrest in human Ramos cells assessed as accumulation at S phase at 0.1 uM measured after 48 hrs by propidium iodide/RNase staining based flow cytometric analysis (reference value: 56.35 %); assay type: functional
[12] = test system: Ramos; assay: Induction of apoptosis in human Ramos cells assessed as late apoptotic cells at 3 uM measured after 15 mins by Annexin-V-APC staining-based flow cytometric analysis (reference value: 1.85 %); assay type: functional
[13] = test system: Ramos; assay: Induction of apoptosis in human Ramos cells assessed as necrotic cells at 1 uM measured after 15 mins by Annexin-V-APC staining-based flow cytometric analysis (reference value: 1.50 %); assay type: functional
[14] = test system: Ramos; assay: Induction of apoptosis in human Ramos cells assessed as early apoptotic cells at 1 uM measured after 15 mins by Annexin-V-APC staining-based flow cytometric analysis (reference value: 0.14 %); assay type: functional
[15] = test system: Ramos; assay: Induction of apoptosis in human Ramos cells assessed as late apoptotic cells at 1 uM measured after 15 mins by Annexin-V-APC staining-based flow cytometric analysis (reference value: 1.85 %); assay type: functional
[16] = test system: Ramos; assay: Induction of apoptosis in human Ramos cells assessed as viable cells at 0.1 uM measured after 15 mins by Annexin-V-APC staining-based flow cytometric analysis (reference value: 96.5 %); assay type: functional; details: 0.25 h, read-out: Activity
[17] = test system: Raji; assay: Cell cycle arrest in human Raji cells assessed as accumulation at G0/G1 phase at 1 uM measured after 48 hrs by propidium iodide/RNase staining based flow cytometric analysis (reference value: 48.68 %); assay type: functional
[18] = test system: Raji; assay: Induction of apoptosis in human Raji cells assessed as late apoptotic cells at 5 uM measured after 15 mins by Annexin-V-APC staining-based flow cytometric analysis (reference value: 0.57 %); assay type: functional
[19] = test system: Raji; assay: Induction of apoptosis in human Raji cells assessed as necrotic cells at 1 uM measured after 15 mins by Annexin-V-APC staining-based flow cytometric analysis (reference value: 1.87 %); assay type: functional
[20] = test system: Ramos; assay: Induction of apoptosis in human Ramos cells assessed as early apoptotic cells at 3 uM measured after 15 mins by Annexin-V-APC staining-based flow cytometric analysis (reference value: 0.14 %); assay type: functional
[21] = test system: Raji; assay: Induction of apoptosis in human Raji cells assessed as late apoptotic cells at 1 uM measured after 15 mins by Annexin-V-APC staining-based flow cytometric analysis (reference value: 0.57 %); assay type: functional
[22] = test system: Raji; assay: Cell cycle arrest in human Raji cells assessed as accumulation at G2/M phase at 0.1 uM measured after 48 hrs by propidium iodide/RNase staining based flow cytometric analysis (reference value: 18.14 %); assay type: functional
[23] = test system: Raji; assay: Cell cycle arrest in human Raji cells assessed as accumulation at G0/G1 phase at 5 uM measured after 48 hrs by propidium iodide/RNase staining based flow cytometric analysis (reference value: 48.68 %); assay type: functional
[24] = test system: Raji; assay: Induction of apoptosis in human Raji cells assessed as early apoptotic cells at 1 uM measured after 15 mins by Annexin-V-APC staining-based flow cytometric analysis (reference value: 0.021 %); assay type: functional
[25] = test system: Raji; assay: Induction of apoptosis in human Raji cells assessed as late apoptotic cells at 3 uM measured after 15 mins by Annexin-V-APC staining-based flow cytometric analysis (reference value: 0.57 %); assay type: functional
[26] = target: Tyrosine-protein kinase BTK (Homo sapiens, UniProt Q06187); assay: Inhibition of human recombinant full length N-terminal His tagged BTK expressed in baculovirus infected Sf9 cells using poly (Glu,Tyr) 4:1 as substrate measured after 60 mins in presence of ATP by ADP-Glo kinase assay
Chain of Tyrosine-protein kinase BTK (Q06187 whole entry): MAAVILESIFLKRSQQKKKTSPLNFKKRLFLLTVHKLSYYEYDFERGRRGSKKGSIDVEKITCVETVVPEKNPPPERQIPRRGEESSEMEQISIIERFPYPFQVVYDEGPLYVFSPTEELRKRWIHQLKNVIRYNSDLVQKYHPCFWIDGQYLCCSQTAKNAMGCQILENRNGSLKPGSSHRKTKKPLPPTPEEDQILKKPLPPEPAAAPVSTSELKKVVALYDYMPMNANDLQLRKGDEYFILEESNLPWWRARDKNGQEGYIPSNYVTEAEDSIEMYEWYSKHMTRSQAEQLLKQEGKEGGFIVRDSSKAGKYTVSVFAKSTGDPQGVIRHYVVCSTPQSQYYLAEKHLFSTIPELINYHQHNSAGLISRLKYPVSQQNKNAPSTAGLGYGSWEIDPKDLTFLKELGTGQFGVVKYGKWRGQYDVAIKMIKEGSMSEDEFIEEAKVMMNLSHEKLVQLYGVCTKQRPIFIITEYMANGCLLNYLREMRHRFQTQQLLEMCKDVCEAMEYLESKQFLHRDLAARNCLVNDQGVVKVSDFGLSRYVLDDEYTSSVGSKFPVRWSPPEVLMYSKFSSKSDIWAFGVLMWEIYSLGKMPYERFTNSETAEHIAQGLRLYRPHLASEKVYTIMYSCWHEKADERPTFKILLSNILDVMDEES

[27] = test system: Raji; assay: Induction of apoptosis in human Raji cells assessed as viable cells at 0.1 uM measured after 15 mins by Annexin-V-APC staining-based flow cytometric analysis (reference value: 97.5 %); assay type: functional; details: 0.25 h, read-out: Activity

With CN1CCN(c2ccc(Nc3nc(-c4cccc(NC(=O)c5ccc(F)c(Cl)c5)c4)sc3C(N)=O)cc2)CC1 the Activity [1] was 2.91%, the Activity [2] was 0.072% and the Activity [3] was 33.13%. It also gave a viability at 3 µM [4] of 95.6%, an Activity [5] of 40.13% and an Activity [6] of 32%. It also gave an Activity [7] of 0.091%, an Activity [8] of 25.7% and an Activity [9] of 8.33%. It also gave a viability at 5 µM [10] of 0.15%, an Activity [11] of 51.54% and an Activity [12] of 6.43%. For the same compound, the Activity [13] was 2.04%, the Activity [14] was 0.051% and the Activity [15] was 2.23%. For the same compound, the viability at 0.1 µM [16] was 96.4%, the Activity [17] was 54% and the Activity [18] was 67.7%. For the same compound, the Activity [19] was 1.88%, the Activity [20] was 0.052% and the Activity [21] was 0.53%. The Activity [22] was 19.33%, the Activity [23] was 82.55% and the Activity [24] was 0%. It also gave an Activity [25] of 1.52%, an IC50 [26] of 90 nM and a viability at 0.1 µM [27] of 97.8%.
